Consider 1 compound from patent US11517555B2, “Solid soluble ferric pyrophosphate formulations, kits, and methods using the same” (ROCKWELL MEDICAL, INC., priority 2015, dated 2022).

On series [1], the source says:
The angle of repose is related to resistance to movement between particles (interparticulate friction) and is the constant, three-dimensional angle relative to the horizontal base assumed by a cone-shaped pile of powder. In a typical assay, a symmetrical cone-shaped pile of powder is built by passing a solid particulate formulation through a funnel onto a vibration-free fixed base. The height of the funnel is maintained approximately 2 cm to 4 cm above the pile to minimize the effect of falling particles on the top of the pile. The angle of repose can then be determined by measuring the height and radius of the cone and calculating the angle of repose from the following equation: angle of repose=tan^−1(height/radius).

The conditions of series [2]: aqueous solution.
For series [3] the following is noted: healthy volunteers, 2.5-10 mg iv over 4 hours, 15 and 20 mg iv over 12 hours.
For series [4], the target named is apotransferrin and monoferric transferrin (Homo sapiens, UniProt P02787).
This is another data set of the same source.
[5] abbreviates: Cilas 1180LD laser diffraction, liquid dispersion in mineral oil, replicates 1-3, citrate.

Where “and” joins values, the source holds several entries; their conditions need not be identical. Equal entries are not always repeated. A value given as a limit tells only on which side of the number the result lay.

apotransferrin and monoferric transferrin, sequence (P02787 20-698): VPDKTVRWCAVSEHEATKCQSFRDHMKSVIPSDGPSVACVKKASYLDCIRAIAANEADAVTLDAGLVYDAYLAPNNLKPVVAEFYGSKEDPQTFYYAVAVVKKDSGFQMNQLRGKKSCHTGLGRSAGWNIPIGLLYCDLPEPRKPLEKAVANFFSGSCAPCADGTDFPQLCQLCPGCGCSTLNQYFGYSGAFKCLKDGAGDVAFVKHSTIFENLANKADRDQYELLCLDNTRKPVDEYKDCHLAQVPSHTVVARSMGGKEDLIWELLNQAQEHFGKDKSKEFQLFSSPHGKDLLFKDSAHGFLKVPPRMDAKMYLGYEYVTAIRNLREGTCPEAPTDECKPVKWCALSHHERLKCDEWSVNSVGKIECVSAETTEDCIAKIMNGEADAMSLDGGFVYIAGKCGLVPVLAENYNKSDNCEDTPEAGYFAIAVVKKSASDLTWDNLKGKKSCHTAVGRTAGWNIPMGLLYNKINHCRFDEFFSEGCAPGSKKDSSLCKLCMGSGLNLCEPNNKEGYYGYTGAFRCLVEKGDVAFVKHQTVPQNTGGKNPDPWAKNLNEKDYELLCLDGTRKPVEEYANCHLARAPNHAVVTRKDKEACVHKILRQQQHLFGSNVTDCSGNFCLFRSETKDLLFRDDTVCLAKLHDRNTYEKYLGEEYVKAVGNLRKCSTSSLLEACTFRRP

On to `O=C([O-])CC(O)(CC(=O)[O-])C(=O)[O-].O=P(O)(O)OP(=O)(O)O.[Fe+3]` [SFP, Ferric pyrophosphate citrate], for which the “Angle of Response, Average” value in series [1] (average of 3 replicate measurements) is recorded as 41.5 °. In series [1] (single replicate measurements 1-3, citrate), the “Angle of Response” value was 42.3 ° and 41.4 ° and 40.9 °. The “Fe(III)-ligand binding” value in series [2] is “Covalent and stable in aqueous”. Further, in series [3], the “AUC of baseline-corrected serum iron” value was “increased in a dose proportional manner” and the “Cmax of baseline-corrected serum iron” value is listed as “increased in a dose proportional manner”. In series [4], the Pharmacologic action entry was “Binds directly to apotransferrin and”. Besides, under setting [5], the D10 is 3.57 μm and 3.63 μm and 3.68 μm; the D50 is 12.73 μm and 12.66 μm and 12.58 μm; the D90 is 41.08 μm and 40.18 μm and 39.23 μm. The primary particle size (light microscopy, dry powder and mineral oil dispersions) was more than 5 μm.
